The values below come from patent US20250049937A1, “NOVEL AURISTATIN ANALOGS AND IMMUNOCONJUGATES THEREOF” (priority 2021, published 2025).

The test relates to HCC1954 breast ductal carcinoma cells. The test can be described thus: HCC1954 5-day cell viability assay (Cell Titer Glo 2.0). In kind it is cell-based. Conditions: Homo sapiens, HCC1954, 120 h, read-out: IC50 (HCC1954 5-Day Assay). Here is the method: (§1) *Biological assay protocol: HCC1954 breast ductal carcinoma or SK-BR-3 cells (ATCC, Manassas, VA, USA) were seeded into 384-well white-walled culture plates and allowed to adhere for 2-4 hours. Cells were then treated with test articles at least in duplicate by addition of 5-fold serially diluted test articles prepared at 2× final concentration and incubated at 37° C. for 120 hours. Cell viability following treatment was determined by Cell Titer Glo 2.0 Assay (Promega, Madison, WI, USA) and normalized to non-treated controls. Dose-response relationships were analyzed using GraphPad Prism (La Jolla, CA, USA), and IC50 values were derived from non-linear regression analyses using a 4-parameter logistic equation
as §1, with “HCC1954” for “*Biological assay protocol: HCC1954”, “carcinoma” for “carcinoma or SK-BR-3”, “treated” for “treated with test articles”, “equation.” for “equation”
Background: Cellular ATP, detected with luciferase, serves as a proxy for viable cell number.

Usually IC50 stands for the point on the concentration scale where inhibition reaches its midpoint. With `CC[C@H](C)[C@@H]([C@@H](CC(=O)N1CCC[C@H]1[C@H](OC)[C@@H](C)C(=O)N[C@H](CC#N)Cc1ccc(N)cc1)OC)N(C)C(=O)[C@@H](NC(=O)[C@H](C(C)C)N(C)C)C(C)C` [Compound 1, (S)—N-((3R,4S,5S)-1-((S)-2-((1R,2R)-3-(((S)-1-(4-aminophenyl)-3-cyanopropan-2-yl)amino)-1-methoxy-2-methyl-3-oxopropyl)pyrrolidin-1-yl)-3-methoxy-5-methyl-1-oxoheptan-4-yl)-2-((S)-2-(dimethylamino)-3-methylbutanamido)-N,3-dimethylbutanamide], the half-maximal inhibitory concentration (IC50) came to 0.31 nM.

Consider `CC[C@H](C)[C@@H]([C@@H](CC(=O)N1CCC[C@H]1[C@H](OC)[C@@H](C)C(=O)N[C@H](CC#N)Cc1cccc(N)c1)OC)N(C)C(=O)[C@@H](NC(=O)[C@H](C(C)C)N(C)C)C(C)C` [Compound 2, (S)—N-((3R,4S,5S)-1-((S)-2-((1R,2R)-3-(((S)-1-(3-aminophenyl)-3-cyanopropan-2-yl)amino)-1-methoxy-2-methyl-3-oxopropyl)pyrrolidin-1-yl)-3-methoxy-5-methyl-1-oxoheptan-4-yl)-2-((S)-2-(dimethylamino)-3-methylbutanamido)-N,3-dimethylbutanamide], for which the IC50 is 0.37 nM.

For `CC[C@H](C)[C@@H]([C@@H](CC(=O)N1CCC[C@H]1[C@H](OC)[C@@H](C)C(=O)N[C@H](CC#N)Cc1cccc(N)c1)OC)N(C)C(=O)[C@@H](NC(=O)[C@@H](C(C)C)N(C)C)C(C)C` [Compound 3, (S)—N-((3R,4S,5S)-1-((S)-2-((1R,2R)-3-(((S)-1-(3-aminophenyl)-3-cyanopropan-2-yl)amino)-1-methoxy-2-methyl-3-oxopropyl)pyrrolidin-1-yl)-3-methoxy-5-methyl-1-oxoheptan-4-yl)-2-((R)-2-(dimethylamino)-3-methylbutanamido)-N,3-dimethylbutanamide], the half-maximal inhibitory concentration (IC50) amounted to 0.12 nM.

For `CC[C@H](C)[C@@H]([C@@H](CC(=O)N1CCC[C@H]1[C@H](OC)[C@@H](C)C(=O)N[C@H](CC#N)Cc1cccc(N)c1)OC)N(C)C(=O)[C@@H](NC(=O)[C@H](C)N(C)C)C(C)C` [Compound 4, (S)—N-((3R,4S,5S)-1-((S)-2-((1R,2R)-3-(((S)-1-(3-aminophenyl)-3-cyanopropan-2-yl)amino)-1-methoxy-2-methyl-3-oxopropyl)pyrrolidin-1-yl)-3-methoxy-5-methyl-1-oxoheptan-4-yl)-2-((S)-2-(dimethylamino)propanamido)-N,3-dimethylbutanamide], the IC50 is 0.49 nM.

Consider `CC[C@H](C)[C@@H]([C@@H](CC(=O)N1CCC[C@H]1[C@H](OC)[C@@H](C)C(=O)N[C@H](CC#N)Cc1cccc(N)c1)OC)N(C)C(=O)[C@@H](NC(=O)[C@@H](C)N(C)C)C(C)C` [Compound 5, (S)—N-((3R,4S,5S)-1-((S)-2-((1R,2R)-3-(((S)-1-(3-aminophenyl)-3-cyanopropan-2-yl)amino)-1-methoxy-2-methyl-3-oxopropyl)pyrrolidin-1-yl)-3-methoxy-5-methyl-1-oxoheptan-4-yl)-2-((R)-2-(dimethylamino)propanamido)-N,3-dimethylbutanamide], for which the IC50 stood at 0.37 nM.

With `CC[C@H](C)[C@@H]([C@@H](CC(=O)N1CCC[C@H]1[C@H](OC)[C@@H](C)C(=O)N[C@H](CC#N)Cc1cccc(N)c1)OC)N(C)C(=O)[C@@H](NC(=O)CN(C)C)C(C)C` [Compound 6, (S)—N-((3R,4S,5S)-1-((S)-2-((1R,2R)-3-(((S)-1-(3-aminophenyl)-3-cyanopropan-2-yl)amino)-1-methoxy-2-methyl-3-oxopropyl)pyrrolidin-1-yl)-3-methoxy-5-methyl-1-oxoheptan-4-yl)-2-(2-(dimethylamino)acetamido)-N,3-dimethylbutanamide], the concentration for half-maximal inhibition (IC50) was 0.78 nM.

On to `CC[C@H](C)[C@@H]([C@@H](CC(=O)N1CCC[C@H]1[C@H](OC)[C@@H](C)C(=O)N(C)[C@H](CC#N)Cc1cccc(N)c1)OC)N(C)C(=O)[C@@H](NC(=O)[C@H](C(C)C)N(C)C)C(C)C` [Compound 7, (S)—N-((3R,4S,5S)-1-((S)-2-((1R,2R)-3-(((S)-1-(3-aminophenyl)-3-cyanopropan-2-yl)(methyl)amino)-1-methoxy-2-methyl-3-oxopropyl)pyrrolidin-1-yl)-3-methoxy-5-methyl-1-oxoheptan-4-yl)-2-((S)-2-(dimethylamino)-3-methylbutanamido)-N,3-dimethylbutanamide], for which the concentration for half-maximal inhibition (IC50) was determined as 0.07 nM.

For `CC[C@H](C)[C@@H]([C@@H](CC(=O)N1CCC[C@H]1[C@H](OC)[C@@H](C)C(=O)N(C)[C@H](CC#N)Cc1cccc(N)c1)OC)N(C)C(=O)[C@@H](NC(=O)[C@H](C)N(C)C)C(C)C` [Compound 8, (S)—N-((3R,4S,5S)-1-((S)-2-((1R,2R)-3-(((S)-1-(3-aminophenyl)-3-cyanopropan-2-yl)(methyl)amino)-1-methoxy-2-methyl-3-oxopropyl)pyrrolidin-1-yl)-3-methoxy-5-methyl-1-oxoheptan-4-yl)-2-((S)-2-(dimethylamino)propanamido)-N,3-dimethylbutanamide], the half-inhibitory concentration (IC50) was 0.22 nM.

Take `CC[C@H](C)[C@@H]([C@@H](CC(=O)N1CCC[C@H]1[C@H](OC)[C@@H](C)C(=O)N(C)[C@H](CC#N)Cc1cccc(N)c1)OC)N(C)C(=O)[C@@H](NC(=O)[C@@H](C)N(C)C)C(C)C` [Compound 9, (S)—N-((3R,4S,5S)-1-((S)-2-((1R,2R)-3-(((S)-1-(3-aminophenyl)-3-cyanopropan-2-yl)(methyl)amino)-1-methoxy-2-methyl-3-oxopropyl)pyrrolidin-1-yl)-3-methoxy-5-methyl-1-oxoheptan-4-yl)-2-((R)-2-(dimethylamino)propanamido)-N,3-dimethylbutanamide]: the IC50 came out at 0.58 nM.
